Measurements reported in patent US8227448B2, “Nutritional composition with health promoting action containing oligosaccharides” (priority 2000, dated 2012).

Test system: EHEC binding to Caco2 cells
Test: inhibition of pathogen (EHEC) binding to human colon cancer cells
Format: cell-based
Conditions: EHEC (2×10^8 cfu/ml) on Caco2 cells; test solution 5-10 mg/ml hydrolysed fibre; 1 h at 37° C.; cfu versus blank
Experimental: Different oligosaccharides obtained by hydrolysis of fibres were used to measure inhibition of pathogen binding to human colon cancer cells. Cells for the binding experiment are grown under standard conditions. The growth medium is removed from the cells and 0.2 ml of minimal essential medium, 0.4 ml EHEC solution (2×10^8 cfu/ml) and 0.4 ml of test solution (5-10 mg/ml hydrolysed fibre) is added. Appropriate blanks are used as controls. Cells are incubated for an hour at 37° C., after which the medium is removed. The cells are washed five times with PBS buffer, lysed, homogenised, diluted and plated to count colony-forming units, following standard procedures. Comparison of the amount of cfu's found with the blank and with one of the fractions, the inhibiting power of the fraction can be calculated as percentage reduction in binding. The table below summarises results of binding reduction. […] All other oligosaccharides (non arabinose-containing) have lower than 60% binding reduction activity.

## OC[C@H]1O[C@@H](O[C@H]2[C@H](O)[C@@H](O)C(O)O[C@@H]2CO)[C@H](O)[C@@H](O)[C@H]1O (stereo partly shown) [lactose]
  % binding reduction: 28%
